Measured values taken from PubChem BioAssay (NCI).
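Method: 48-hour compound exposure of cells in 96-well plates, five concentrations, linear interpolation of endpoints. GI50 is the concentration that inhibits growth by half. TGI: total growth inhibition.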

Columns and labels:
Assay in all cases: NCI-60 cell line screen, 48 h
[1] = tested on: UACC-257 melanoma
[2] = tested on: EKVX NSCLC
[3] = tested on: DU-145 prostate
[4] = tested on: U251 CNS
[5] = tested on: NCI-H23 lung
[6] = tested on: SN12C renal
[7] = tested on: ACHN renal
[8] = tested on: KM12 colon
[9] = tested on: NCI-H460 lung
[10] = tested on: SR leukemia

SMILES | GI50 [1] [µM] | TGI [1] [µM] | GI50 [2] [µM] | TGI [2] [µM] | GI50 [3] [nM] | TGI [3] [µM] | GI50 [4] [nM] | TGI [4] [µM] | GI50 [5] [nM] | TGI [5] [µM] | GI50 [6] [nM] | TGI [6] [µM] | GI50 [7] [µM] | TGI [7] [µM] | GI50 [8] [nM] | TGI [8] [µM] | GI50 [9] [nM] | TGI [9] [µM] | GI50 [10] [nM] | TGI [10] [µM]
O=c1oc2ccc(-c3ccc(F)cc3F)cc2c(=O)n1-c1ccc(Cl)c(C(F)(F)F)c1 | 1.85 | 6.44 | 2.18 | 7.54 | 3750 | > 100 | 2360 | 12.5 | 1830 | 4.59 | 2600 | 11.7 | 3.12 | 9.8 | 2360 | 5.85 | 2960 | > 100 | 2430 | 8.8
COc1ccc(C2C=C(c3ccc(Cl)cc3)N=C3SC=C(C)N32)c(Br)c1 (stereo unspecified) | 4.42 | 18.8 | – | – | 2680 | 7.26 | 3340 | 13.1 | 4430 | 28.4 | 3230 | 15.1 | 3.64 | 17.4 | 2260 | 5.77 | 2240 | 5.87 | 2060 | 14.9
COc1ccc(Cn2cc3c(c2-c2ccccc2)CCc2cnoc2-3)cc1N | 10.2 | > 100 | 0.359 | > 100 | 210 | 1.27 | 287 | > 100 | 441 | > 100 | 694 | > 100 | 1.11 | > 100 | 78.8 | 2.58 | 115 | 1.66 | 52.8 | 4.25
N#Cc1c(N)nc(NCc2ccccc2)c(C#N)c1-c1ccc(Cl)cc1Cl | > 100 | > 100 | > 100 | > 100 | > 100000 | > 100 | > 61900 | > 100 | > 76100 | > 100 | > 100000 | > 100 | > 100 | > 100 | > 84500 | > 100 | > 69400 | > 100 | 2070 | 21.8
CN(C)c1ccc(C(c2ccc(Cl)cc2)c2ccc(N(C)C)cc2)cc1 | – | > 100 | – | > 100 | – | > 100 | – | > 100 | – | > 100 | – | > 100 | – | > 100 | – | > 100 | – | > 100 | – | > 100
Nc1nc(=O)n([C@@H]2CS[C@H](CO)O2)cc1F | > 100 | > 100 | > 100 | > 100 | > 100000 | > 100 | > 100000 | > 100 | > 100000 | > 100 | > 100000 | > 100 | > 100 | > 100 | > 100000 | > 100 | > 100000 | > 100 | > 100000 | > 100
Cc1cc(Cl)ccc1Nc1nc(C(F)(F)F)ccc1C(=O)N/N=C/c1ccccc1Cl | 2.24 | 10.2 | 0.894 | 7.23 | 1620 | > 27.6 | 526 | 4.86 | 775 | 4.89 | 1450 | > 54.3 | 1.53 | 6.86 | 902 | 8.14 | 850 | 4.84 | 188 | 0.768
COc1cc(NCCN=C(N)NC(N)=NC(C)C)c2ncccc2c1 | 11 | 32.5 | – | – | 38300 | > 100 | 12400 | > 100 | 3250 | 15.7 | 3470 | 18.2 | > 100 | > 100 | 3530 | > 41.2 | 5670 | > 57.6 | 15000 | > 100
O=C(Nc1cc(Oc2cc(F)c(NC(=O)C3(C(=O)Nc4ccc(F)cc4)CC3)cc2F)ccn1)C1CC1 | 2.08 | 6.32 | 2.42 | 5.51 | 3270 | > 100 | 3960 | > 46.3 | 1310 | 6.02 | 2680 | > 100 | 2.87 | > 100 | – | 7.42 | 3270 | > 34.7 | 1700 | 5.38
CC1=C[C@H]2C[C@H](C)[C@H]3CC[C@H](C)[C@]4(C1)C(=O)C(O)=C(C)C(=O)[C@@]324 | 59.2 | > 100 | 42.9 | > 100 | 43300 | > 100 | 32100 | > 100 | 11000 | 29.7 | 28700 | > 100 | 34.2 | > 100 | 29400 | > 100 | 42900 | > 100 | 27400 | 82.6
O=S(=O)(Nc1ccc(F)c(Cl)c1)c1ccc(-c2cnc(C3CC3)o2)cc1 | 1.12 | 10.1 | 0.609 | 11.9 | 592 | 12.2 | 438 | 13.7 | 593 | 11.3 | 663 | 10.8 | 0.533 | 12 | 151 | 9.3 | 377 | 4.29 | 83.8 | > 42.3
C#COc1cccc(Nc2ncnc3cc(NC(=O)[C@H](C)Cl)ccc23)c1 | > 62.5 | > 62.5 | 17.4 | > 62.5 | 6090 | > 62.5 | 2840 | > 62.5 | 7660 | > 62.5 | 3690 | > 62.5 | 3.05 | > 62.5 | 2440 | > 62.5 | 2180 | > 62.5 | 2870 | > 62.5
Clc1ccccc1C(Nc1ncccn1)Nc1ncccn1 | – | > 100 | – | > 100 | – | > 100 | – | > 100 | – | > 100 | – | > 100 | – | > 100 | – | > 100 | – | > 100 | – | > 100
COc1cccc(/C(C)=N/NC(=O)CSc2nc3ccccc3c(=O)n2CCc2ccc(S(N)(=O)=O)cc2)c1 | 10.9 | 36.7 | 5.81 | 33.9 | 3350 | 10.6 | 1980 | 3.67 | 2860 | 8.47 | 4520 | 19.5 | 3.19 | 15.9 | 2800 | 7.67 | – | – | 481 | > 100
O=C(Nc1ccccc1O)c1ccc(NS(=O)(=O)c2cccc3cccnc23)cc1 | 0.571 | 5.25 | – | – | 1270 | 9.55 | 1300 | 5.4 | 2020 | 13.7 | 2780 | > 19.7 | 1.21 | 5.78 | 2730 | 7.29 | 1050 | 7.28 | 1310 | 13.9
CC(=O)NNc1nc(C)c(C(=O)NNC(=O)C(=O)Nc2ccc([N+](=O)[O-])cc2C#N)s1 | – | > 100 | – | > 100 | – | – | – | > 100 | – | > 100 | – | > 100 | – | > 100 | – | > 100 | – | > 100 | – | > 100
CC(C)(C)OC(=O)c1cccnc1/C=N/O | – | > 100 | – | > 100 | – | – | – | > 100 | – | > 100 | – | > 100 | – | > 100 | – | > 100 | – | > 100 | – | > 100
COc1cc(C2C3=C(COC3=O)N(CCO)c3cc4c(cc32)OCO4)cc(OC)c1O (stereo unspecified) | – | – | 4.36 | > 50 | 1580 | 7.22 | 2190 | > 50 | 1840 | > 38 | > 12100 | > 50 | > 13.5 | > 50 | 1350 | > 20.6 | 1690 | > 15.9 | 611 | > 11.9
CCOC(=O)C1([Se]c2ccccc2)CCCC1=O (stereo unspecified) | – | > 100 | – | 86.8 | – | – | – | 23.3 | – | 33.4 | – | 30.5 | – | 43.2 | – | > 100 | – | > 100 | – | 47.5
COC1C2c3cc4c(cc3CC(C#N)(c3ccccc32)N1C(=O)c1ccccc1)OCO4 (stereo unspecified) | – | > 100 | – | > 100 | – | – | – | > 100 | – | > 100 | – | > 100 | – | > 100 | – | > 100 | – | > 100 | – | > 100
c1ccc([As]=[As]c2ccccc2)cc1 (stereo unspecified) | 1.28 | 2.88 | – | – | 1660 | 3.32 | 752 | 2.05 | – | – | 1210 | 3.07 | 1.28 | 2.65 | 1870 | 3.69 | 2010 | 4.15 | 302 | 1.95
